In US11084814B2, “Pyrido[3, 4-d]pyrimidine derivative and pharmaceutically acceptable salt thereof” (Teijin Pharma Limited, priority 2016, dated 2021):

Assays:
CDK2/cyclin A2 = molecular target: T1, CDK2/cyclin A2 (Homo sapiens, UniProt P24941); assay: Human CDK2/cyclin A2 inhibitory activity (QS S Assist CDK2/Cyclin A2_FP Kit, IMAP fluorescent polarization); type: biochemical; details: read-out: CDK2 Activity symbol
T1 construct: purchased Carna Biosciences, Inc. QS S Assist CDK2/Cyclin A2_FP Kit
Method in brief: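 Kit CDK2/cyclin A2 (2.5 ng/well) was reacted with kit ATP/substrate/metal in 20 mM HEPES pH 7.4, 0.01% Tween 20 and 2 mM DTT for 60 min at room temperature. IMAP binding reagent was added for 30 min, then fluorescence polarization was read at 485/535 nm. IC50 came from dose-response fitting of percent inhibition.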

CDK4/cyclin D3 = molecular target: T2, CDK4/cyclin D3 (Homo sapiens, UniProt P11802); assay: Human CDK4/cyclin D3 inhibitory activity (QS S Assist CDK4/Cyclin D3_FP Kit, IMAP fluorescent polarization); type: biochemical; details: read-out: CDK4 Activity symbol
T2 construct: purchased Carna Biosciences, Inc. QS S Assist CDK4/Cyclin D3_FP Kit
Method in brief: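 Kinase reactions used kit CDK4/cyclin D3 at 12.5–25 ng/well with the kit ATP/substrate/metal mix in 20 mM HEPES (pH 7.4), 0.01% Tween20 and 2 mM DTT, run 45 min at room temperature. Phosphorylation was detected by IMAP fluorescence polarization (ex 485/em 535 nm) after 30 min binding in the dark. IC50 was fitted from percent inhibition against DMSO controls with and without enzyme.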

T2 sequence (P11802 whole entry): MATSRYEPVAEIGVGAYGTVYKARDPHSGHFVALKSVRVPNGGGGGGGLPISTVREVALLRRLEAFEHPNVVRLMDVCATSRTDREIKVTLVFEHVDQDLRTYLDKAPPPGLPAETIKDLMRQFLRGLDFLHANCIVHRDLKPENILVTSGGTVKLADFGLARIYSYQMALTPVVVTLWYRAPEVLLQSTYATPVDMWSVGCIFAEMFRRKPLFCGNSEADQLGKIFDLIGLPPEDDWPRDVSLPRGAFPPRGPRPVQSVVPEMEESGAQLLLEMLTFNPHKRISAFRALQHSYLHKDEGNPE
T2 sequence (P30281 whole entry partner): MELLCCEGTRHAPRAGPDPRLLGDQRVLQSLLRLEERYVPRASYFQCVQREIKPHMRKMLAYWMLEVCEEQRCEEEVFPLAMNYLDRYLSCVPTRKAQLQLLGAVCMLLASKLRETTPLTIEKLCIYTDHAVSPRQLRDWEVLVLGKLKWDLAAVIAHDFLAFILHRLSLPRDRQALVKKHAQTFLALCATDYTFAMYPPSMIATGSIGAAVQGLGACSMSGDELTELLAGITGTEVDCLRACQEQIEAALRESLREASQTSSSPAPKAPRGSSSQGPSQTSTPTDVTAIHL

| Compound | IC50 (CDK2/cyclin A2) [nM] | IC50 (CDK4/cyclin D3) [nM] |
| --- | --- | --- |
| C[C@@H](O)c1cc2cnc(Nc3ccc(N4CCN(C)CC4)nn3)nc2c(N2CCCCC2)n1 [Compound 123, (R)-1-(2-((6-(4-methylpiperazin-1-yl)pyridazin-3-yl)amino)-8-(piperidin-1-yl)pyrido[3,4-d]pyrimidin-6-yl)ethanol] | ≥ 100 | < 10 |
| C[C@@H](O)c1cc2cnc(Nc3ccc(N4CCN(C)CC4)nn3)nc2c(N2CCC(F)CC2)n1 [Compound 124] | ≥ 100 | < 10 |
| CO[C@H](C)c1cc2cnc(Nc3ccc(N4CCN(C)CC4)nn3)nc2c(N2CCC(F)CC2)n1 [Compound 125] | ≥ 100 | 10 to 100 |
| CO[C@H](C)c1cc2cnc(Nc3ccc(N4CCNCC4)nn3)nc2c(N2CCC(F)CC2)n1 [Compound 126] | ≥ 100 | < 10 |
| C[C@@H](O)c1cc2cnc(Nc3ccc(N4CCCNCC4=O)cn3)nc2c(N2CCCCC2)n1 [Compound 127] | ≥ 100 | < 10 |
| OCCN1CCN(Cc2ccc(Nc3ncc4cc(C(F)F)nc(N5CCCCC5)c4n3)nc2)CC1 [Compound 128] | ≥ 100 | < 10 |
| OCCN1CCN(Cc2ccc(Nc3ncc4cc(C(F)F)nc(N5CCC(O)CC5)c4n3)nc2)CC1 [Compound 129] | ≥ 100 | < 10 |
| C[C@@H](O)c1cc2cnc(Nc3ccc4c(n3)CCN(CCCO)C4)nc2c(N2CCCCC2)n1 [Compound 130] | ≥ 100 | < 10 |
| C[C@@H](O)c1cc2cnc(Nc3ccc(O[C@H]4CCN(CCO)C[C@@H]4F)cn3)nc2c(N2CCCCC2)n1 [Compound 131] | ≥ 100 | 10 to 100 |
| C[C@@H](O)c1cc2cnc(Nc3ccc(O[C@@H]4CCN(CCO)C[C@@H]4F)cn3)nc2c(N2CCCCC2)n1 [Compound 132] | ≥ 100 | < 10 |
| C[C@@H](O)c1cc2cnc(Nc3ccc(CN4CCN(C)CC4)cn3)nc2c(N2CC(F)(F)C2)n1 [Compound 133] | ≥ 100 | 10 to 100 |
| OCCN1CCc2nc(Nc3ncc4cc(CO)nc(N5CCCCC5)c4n3)ccc2C1 [Compound 135] | ≥ 100 | < 10 |
| CC(O)c1cc2cnc(Nc3ccc(CN4CCN(C)CC4)cn3)nc2c(N2CCCC2C)n1 (centres unmarked) [Compound 136] | ≥ 100 | < 10 |
| C[C@@H](O)c1cc2cnc(Nc3ccc(CN4CCN(C)CC4)cn3)nc2c(N2CCC[C@@H]2C)n1 [Compound 137] | ≥ 100 | 10 to 100 |
| C[C@@H]1CCN(c2nc([C@@H](C)O)cc3cnc(Nc4ccc(CN5CCN(C)CC5)cn4)nc23)C1 [Compound 138] | ≥ 100 | < 10 |
| C[C@H]1CCN(c2nc([C@@H](C)O)cc3cnc(Nc4ccc(CN5CCN(C)CC5)cn4)nc23)C1 [Compound 139] | ≥ 100 | < 10 |
| CC1CCC(C)N1c1nc([C@@H](C)O)cc2cnc(Nc3ccc(CN4CCN(C)CC4)cn3)nc12 (some centres unmarked) [Compound 140] | ≥ 100 | < 10 |
| CC1CN(c2nc([C@@H](C)O)cc3cnc(Nc4ccc(CN5CCN(C)CC5)cn4)nc23)CC1C (some centres unmarked) [Compound 141] | ≥ 100 | < 10 |
| C[C@@H](O)c1cc2cnc(Nc3ccc(CN4CCN(C)CC4)cn3)nc2c(N2CCC(C)(C)C2)n1 [Compound 142] | ≥ 100 | < 10 |
| C[C@@H](O)c1cc2cnc(Nc3ccc(CN4CCN(C)CC4)cn3)nc2c(N2C3CCC2CC3)n1 [Compound 143] | ≥ 100 | < 10 |
| C[C@@H](O)c1cc2cnc(Nc3ccc(CN4CCN(C)CC4)cn3)nc2c(N2CCC(C(F)(F)F)CC2)n1 [Compound 144] | ≥ 100 | < 10 |
| C[C@@H](O)c1cc2cnc(Nc3ccc(CN4CCN(C)CC4)cn3)nc2c(N2CCOCC2)n1 [Compound 145] | ≥ 100 | 10 to 100 |
| CCC(O)c1cc2cnc(Nc3ccc(CN4CCN(C)CC4)cn3)nc2c(N2CCCCC2)n1 (centres unmarked) [Compound 146] | ≥ 100 | < 10 |
| C[C@@H](O)c1cc2cnc(Nc3ccc4c(n3)CCN(C(=O)C3CCNCC3)C4)nc2c(N2CCCCC2)n1 [Compound 147] | ≥ 100 | < 10 |
| C[C@@H](O)c1cc2cnc(Nc3ccc4c(n3)CCN(C(=O)C3CCN(CCO)CC3)C4)nc2c(N2CCCCC2)n1 [Compound 148] | ≥ 100 | < 10 |
| C[C@@H](O)c1cc2cnc(Nc3ccc4c(n3)CCN(C(=O)C3CCN(C)CC3)C4)nc2c(N2CCCCC2)n1 [Compound 149] | ≥ 100 | < 10 |
| C[C@@H](O)c1cc2cnc(Nc3ccc(CN4CCN(C)CC4)cn3)nc2c(N2CCC(F)(F)CC2)n1 [Compound 150] | ≥ 100 | < 10 |
| C[C@@H](O)c1cc2cnc(Nc3ccc(N4CCN(CCO)CCC4=O)cn3)nc2c(N2CCCCC2)n1 [Compound 151] | ≥ 100 | < 10 |

| Compound | IC50 (CDK2/cyclin A2) [nM] | IC50 (CDK4/cyclin D3) [nM] |
| --- | --- | --- |
| CC(O)c1cc2cnc(Nc3ccc(CN4CCN(C)CC4C)cn3)nc2c(N2CCCCC2)n1 (centres unmarked) [Compound 152] | ≥ 100 | < 10 |
| C[C@@H](O)c1cc2cnc(Nc3ccc(CN4CCNCC4)cn3)nc2c(N2CCCCC2)n1 [Compound 155] | ≥ 100 | < 10 |
| C[C@@H](O)c1cc2cnc(Nc3ccc(CN4CCN(CCO)CC4)cn3)nc2c(C2=CCCCC2)n1 [Compound 156] | ≥ 100 | < 10 |
| CC(O)c1cc2cnc(Nc3ccc(CN4CCN(C)CC4)cn3)nc2c(N2CC3CC3C2)n1 (centres unmarked) [Compound 157] | ≥ 100 | < 10 |
| C[C@@H](O)c1cc2cnc(Nc3ccc(CN4CCN(C)CC4)cn3)nc2c(N2CCCCCC2)n1 [Compound 158] | ≥ 100 | < 10 |
| CC[C@@H](O)c1cc2cnc(Nc3ccc(CN4CCN(CCO)CC4)cn3)nc2c(N2CCCCC2)n1 [Compound 159] | ≥ 100 | 10 to 100 |
| CC[C@H](O)c1cc2cnc(Nc3ccc(CN4CCN(CCO)CC4)cn3)nc2c(N2CCCCC2)n1 [Compound 160] | ≥ 100 | < 10 |
| C[C@@H](O)c1cc2cnc(Nc3ccc4c(n3)CCN(C3COC3)C4)nc2c(N2CCCCC2)n1 [Compound 161] | ≥ 100 | < 10 |
| C[C@@H](O)c1cc2cnc(Nc3ccc4c(n3)CCN(CCN3CCOCC3)C4)nc2c(N2CCCCC2)n1 [Compound 162] | ≥ 100 | < 10 |
| C[C@@H](O)c1cc2cnc(Nc3ccc4c(n3)CCN(S(=O)(=O)C3CCNCC3)C4)nc2c(N2CCCCC2)n1 [Compound 163, (R)-1-(8-(piperidin-1-yl)-2-((6-(piperidin-4-ylsulfonyl)-5,6,7,8-tetrahydro-1,6-naphthyridin-2-yl)amino)pyrido[3,4-d]pyrimidin-6-yl)ethanol] | ≥ 100 | < 10 |
| C[C@@H](O)c1cc2cnc(Nc3ccc(OC4CCNCC4)cn3)nc2c(N2CCCCC2)n1 [Compound 164] | ≥ 100 | < 10 |
| C[C@@H](O)c1cc2cnc(Nc3ccc(OC4CCN(CCO)CC4)cn3)nc2c(N2CCCCC2)n1 [Compound 165] | ≥ 100 | < 10 |
| C[C@H](CO)c1cc2cnc(Nc3ccc4c(n3)CCNC4)nc2c(N2CCCCC2)n1 [Compound 166] | ≥ 100 | 10 to 100 |
| C[C@@H](CO)c1cc2cnc(Nc3ccc(CN4CCN(CCO)CC4)cn3)nc2c(N2CCCCC2)n1 [Compound 167] | ≥ 100 | < 10 |
| C[C@@H](O)Cc1cc2cnc(Nc3ccc(CN4CCN(CCO)CC4)cn3)nc2c(N2CCCCC2)n1 [Compound 168] | ≥ 100 | 10 to 100 |
| C[C@@H](O)Cc1cc2cnc(Nc3ccc(N4CCNCC4=O)cn3)nc2c(N2CCCCC2)n1 [Compound 169] | ≥ 100 | 10 to 100 |
| C[C@@H](O)Cc1cc2cnc(Nc3ccc4c(n3)CCN(CCO)C4)nc2c(N2CCCCC2)n1 [Compound 170] | ≥ 100 | 10 to 100 |
| C[C@@H](CO)c1cc2cnc(Nc3ccc4c(n3)CCN(CCO)C4)nc2c(N2CCCCC2)n1 [Compound 171] | ≥ 100 | 10 to 100 |
| C[C@@H](O)c1cc2cnc(Nc3ccc(CN4CCN(C)CC4)cn3)nc2c(N2CCC2)n1 [Compound 172] | ≥ 100 | 10 to 100 |
| C[C@@H](O)c1cc2cnc(Nc3ccc(CN4CCN(C)CC4)cn3)nc2c(N2CCCC2(C)C)n1 [Compound 173] | 10 to 100 | < 10 |
| CC(O)c1cc2cnc(Nc3ccc(CN4CCN(C)CC4)cn3)nc2c(N2C3CCCC2CC3)n1 (centres unmarked) [Compound 174] | ≥ 100 | < 10 |
| C[C@@H](O)c1cc2cnc(Nc3ccc4c(n3)CCN(C3CNC3)C4)nc2c(N2CCCCC2)n1 [Compound 175] | ≥ 100 | < 10 |
| C[C@@H](O)c1cc2cnc(Nc3ccc4c(n3)CCN(C3CN(CCO)C3)C4)nc2c(N2CCCCC2)n1 [Compound 176] | ≥ 100 | < 10 |
| C[C@@H](O)c1cc2cnc(Nc3ccc(CN4CCN(C)CC4)cn3)nc2c(N2CCCOCC2)n1 [Compound 177] | ≥ 100 | < 10 |
| C[C@@H](O)c1cc2cnc(Nc3ccc(CN4CCN(CCO)CC4)cn3)nc2c(N2CCCOCC2)n1 [Compound 178] | ≥ 100 | < 10 |
| C[C@@H](O)c1cc2cnc(Nc3ccc(CN4CCN(C)CC4)cn3)nc2c(N2CCC[C@H](F)C2)n1 [Compound 179] | ≥ 100 | < 10 |
| C[C@@H](O)c1cc2cnc(Nc3ccc(CN4CCN(CCO)CC4)cn3)nc2c(N2CCC[C@H](F)C2)n1 [Compound 180] | ≥ 100 | < 10 |
